Legend:
[1] = target: T1, Amine oxidase [flavin-containing] A (Rattus norvegicus, UniProt P21396); format: mitochondria, Sprague-Dawley, Mitochondria
T1 sequence (P21396 whole entry): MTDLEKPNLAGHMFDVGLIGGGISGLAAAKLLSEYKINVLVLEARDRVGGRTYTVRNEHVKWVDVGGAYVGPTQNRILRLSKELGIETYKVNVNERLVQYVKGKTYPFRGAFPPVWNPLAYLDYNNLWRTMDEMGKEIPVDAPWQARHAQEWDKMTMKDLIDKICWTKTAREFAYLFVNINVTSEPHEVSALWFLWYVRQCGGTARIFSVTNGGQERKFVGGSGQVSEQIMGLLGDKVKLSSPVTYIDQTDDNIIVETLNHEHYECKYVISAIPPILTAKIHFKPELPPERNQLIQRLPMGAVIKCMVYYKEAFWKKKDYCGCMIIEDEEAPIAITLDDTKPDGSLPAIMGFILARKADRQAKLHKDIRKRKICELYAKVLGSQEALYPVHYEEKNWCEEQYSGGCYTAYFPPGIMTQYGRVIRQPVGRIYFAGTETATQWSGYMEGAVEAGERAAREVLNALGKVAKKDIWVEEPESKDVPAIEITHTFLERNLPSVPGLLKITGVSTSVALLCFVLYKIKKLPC
Description: Inhibition of Sprague-Dawley rat brain mitochondria MAOA by continuous spectrophotometric assay

[2] = target: T2, Amine oxidase [flavin-containing] B (Rattus norvegicus, UniProt P19643); format: mitochondria, Sprague-Dawley, Mitochondria
T2 sequence (P19643 whole entry): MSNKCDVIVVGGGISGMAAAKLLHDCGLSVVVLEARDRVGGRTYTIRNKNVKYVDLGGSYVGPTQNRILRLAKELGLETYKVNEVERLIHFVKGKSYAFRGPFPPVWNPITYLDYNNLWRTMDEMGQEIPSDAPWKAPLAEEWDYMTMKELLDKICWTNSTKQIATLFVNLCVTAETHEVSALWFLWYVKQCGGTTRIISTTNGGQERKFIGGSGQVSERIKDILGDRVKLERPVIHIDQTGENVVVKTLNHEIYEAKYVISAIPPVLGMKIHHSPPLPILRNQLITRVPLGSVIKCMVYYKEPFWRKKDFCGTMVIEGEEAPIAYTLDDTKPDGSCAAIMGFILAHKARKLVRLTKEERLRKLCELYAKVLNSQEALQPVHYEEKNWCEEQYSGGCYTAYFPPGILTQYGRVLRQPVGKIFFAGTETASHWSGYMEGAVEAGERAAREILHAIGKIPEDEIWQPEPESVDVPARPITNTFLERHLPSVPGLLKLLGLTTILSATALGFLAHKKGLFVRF
Description: Inhibition of Sprague-Dawley rat brain mitochondria MAOB by continuous spectrophotometric assay

| IC50 [1] [nM] | IC50 [2] [nM] | SMILES |
| --- | --- | --- |
| 3240 | 302 | Cc1c(C)c2ccc(OC[C@H](O)c3ccccc3)cc2oc1=O |
| 4570 |  | Cc1ccc(S(=O)(=O)N(C)c2ccc3c(C)c(C)c(=O)oc3c2)cc1 |
| 10000 | 70.8 | Cc1c(C)c2ccc(OCC(O)c3ccccc3)cc2oc1=O (racemic) |
| 9550 | 2400 | O=C(OCc1ccc2ccc(=O)oc2c1)c1ccccc1 |

More lines, now with the values behind:

| SMILES | IC50 [1] [nM] | IC50 [2] [nM] |
| --- | --- | --- |
| Cc1cc2ccc(OCc3ccccc3)cc2oc1=O | 5500 | 6.61 |
| Cc1c(C)c2ccc(OCS(=O)(=O)c3ccccc3)cc2oc1=O | 2820 | 871 |
| Cc1c(C)c2ccc(Oc3ccccc3)cc2oc1=O |  | 3240 |
| Cc1c(C)c2ccc(OCCOc3ccccc3)cc2oc1=O | 10200 | 26.9 |
| Cc1cc2ccc(OCc3cccc(Cl)c3)cc2oc1=O | 12600 | 5.13 |
| Cc1c(C)c2ccc(OC/C=C/c3ccccc3)cc2oc1=O |  | 112 |
| Cc1c(C)c2ccc(SCc3ccccc3)cc2oc1=O | 10000 | 39.8 |
| Cc1c(C)c2ccc(OC[C@@H](O)c3ccccc3)cc2oc1=O | 10000 | 28.2 |
| Cc1c(C)c2ccc(CCc3ccccc3)cc2oc1=O | 7080 | 457 |
| Cc1c(C)c2ccc(S(=O)(=O)Cc3ccccc3)cc2oc1=O | 18600 | 2750 |
